Source: patent US10730851B2, “Polymorph of triaryldimethylpiperazine dihydrochloride and preparation method and application thereof” (priority 2016, dated 2020)
Converted amounts (≈) assume the structure as drawn.

Tests used:
SPF-grade SD rats = assay: Forced swimming test; type: in vivo; settings: 40 mg/kg Ip, three times (23.5 h, 5 h, 1 h before test), x ± SEM
Method: Forced swimming test is used to test the antidepressant effects of polymorph forms P, F, O, B and J.
the swimming test equipment is a transparent glass round cylinder with a height of 46 cm and an inner diameter of 20 cm, the test water temperature is 23° C.˜25° C., the test water depth is 30 cm, and each cylinder is used only once.
(§1) 300 mg of a polymorph form P is weighed with an electronic balance, and the polymorph form P is dissolved with 0.9% normal saline, and finally the volume is fixed to 100 mL with 0.9% normal saline, at this time, the concentration of dihydrochloride in the experimental reagent is 3 mg/mL for later use.
as §1, with “600” for “300”, “6” for “3”
400 mg of desipramine (DMI) is weighed with an electronic balance, DMI is dissolved with 0.9% normal saline, and then the volume is fixed to 100 mL with 0.9% normal saline for later use.
Forty SPF-grade SD rats are prepared and randomly divided into 4 groups, namely vehicle control group, positive control group, experimental group 1 and experimental group 2, with 10 rats in each group. The day before the test, the rats were placed in water for 15 min to pre-swim for 15 min in advance to adapt to the swimming test environment, then taken out and dried, placed in the cage under an infrared lamp for 15 min and then placed in the original cage. After 24 h, a formal swimming test is conducted, that is, the rats are put into water again after 24 h, and the rats are continuously observed for 5 min. The swimming process are needed to be photographed. The drug is administered during two swimming sessions.
The positive control group containing DMI is administered three times, at 23.5 h, 5 h and 1 h before the formal swimming test respectively. Vehicle control group, experimental group 1 and experimental group 2 are each administered only once and subcutaneously within 1 h.
The behaviors of the rats are scored by the scorer every 5 seconds after recording the experiment.
1) Static—when the rat floats on the water surface without struggling and moves only to keep its head above the water surface, the rat is evaluated as static;
2) Swimming—if the rats have obvious swimming behaviors, not only to keep their heads above the water surface, or to travel around in a round cylinder, they are evaluated as swimming;
3) Wall climbing—the rats' front paws have obvious behavior of entering and leaving the water surface, usually, rats are evaluated as wall climbing in front of the round cylinder wall.
All behavioral are scored by a single person. To avoid bias of observation, the scorer only observed and scored without knowing the administration situations. Then multiple test fragments are randomly selected, and the scorer will score the second round to determine the accuracy of observation. The test video is scored again by the second scorer to determine the accuracy between scorers. The second scorer are also required to observe without knowing the drug administration. Finally, in order to determine the effectiveness of the method, the first scorer scored again and recorded the duration of various behaviors with a stopwatch.
SPSSwin11.0 software is used for variance analysis. One-way variance analysis is used for homogeneity of variance, and Dunnett test is used for heterogeneity of variance.

[1] = Dynamic solubility test in water, SGF, FeSSIF, FaSSIF; type: physicochemical
Method: The dynamic solubility of a free base, polymorph forms B, P, F, J and O in water or a biological medium such as Stimulated Gastric Fluid (SGF), Fed State Simulated Intestinal Fluid (FeSSIF) or Fasted State Simulated Intestinal Fluid (FaSSIF) is determined.
0.2 g sodium chloride and 0.1 g Triton X-100 is weighed and placed into a 100 mL volumetric flask. Purified water is added to dissolve. A stir is performed until the solid is completely dissolved. About 135 μL concentrated hydrochloric acid solution (37%, […]) is added, then the pH is adjusted to 1.8 with […] hydrochloric acid or 1 mmoL/L sodium hydroxide. Finally, the volume is fixed with purified water to obtain Stimulated Gastric Fluid (SGF) for later use.
Each of 0.41 mL glacial acetic acid, 0.20 g sodium hydroxide and 0.59 g sodium chloride is weighed and placed to a 50 mL volumetric flask. About 48 mL purified water is added to dissolve, the pH is adjusted to 5.0 with 1 mmoL/L hydrochloric acid or 1 mmoL/L sodium hydroxide, and the volume is fixed with purified water. Then 0.56 g of Simulated Intestinal Fluid powder (SIF powder for short, which is composed of […] with a molar ratio of 4:1) is added, stirred and ultrasonically dissolved to obtain Fed State Simulated Intestinal Fluid (FeSSIF) for later use.
Each of 0.17 g of anhydrous sodium dihydrogen phosphate (NaH2PO4), 0.021 g of sodium hydroxide and 0.31 g of sodium chloride is weighed and placed into a 50 mL volumetric flask. About 48 mL of purified water is added to dissolve, the pH is adjusted to 6.5 with 1 mmoL/L hydrochloric acid or 1 mmoL/L sodium hydroxide, and the volume is fixed with purified water. 0.11 g of SIF powder is added, stirred and ultrasonically dissolved to obtain Fasted State Simulated Intestinal Fluid (FaSSIF) for later use.
Each 30 mg of the free base, and polymorph forms B, P, F, J and O are weighed. 3 mL of purified water, Stimulated Gastric Fluid (SGF), Fed State Simulated Intestinal Fluid (FeSSIF) or Fasted State Simulated Intestinal Fluid (FaSSIF)) is added and oscillated at room temperature. 0.6 mL of suspension is taken each time at a set time point, filtered and separated with a 0.45 μm nylon filter membrane, then XRPD characterization is performed on the solid sample, and the concentration in the clear solution is measured by HPLC.

[2] = Relative bioavailability test; type: in vivo, SPF-grade SD rats; settings: rats, 20 mg/kg·bw by gavage in 0.5% CMC-Na, x ± s, n = 6, 20 mg/kg
Method: HPLC-MS/MS method is used to detect the blood drug concentration of target drugs in SPF-grade SD rats, and the relative bioavailability of 0.5% CMC-Na suspension of a free base and 0.5% CMC-Na solution of a polymorph form P are calculated and compared.
60.46 mg of a free base is accurately weighed and placed into a 15 mL centrifuge tube, 12 mL of 0.5% CMC-Na solution is measured and added into the centrifuge tube with a measuring cylinder, vortexed for 5 min, and ultrasonically dispersed for 15 min to obtain 0.5% CMC-Na suspension of free base with a concentration of 5.04 mg/ml, which is currently formulated when using and vibrated at any time during administration.
60.05 mg of a polymorph form P is accurately weighed and placed into a 15 mL centrifuge tube, 12 mL of 0.5% CMC-Na solution is measured and added into the centrifuge tube with a measuring cylinder, vortexed for 5 min, and ultrasonically dispersed for 15 min to obtain 0.5% CMC-Na solution of 5.00 mg/mL polymorph form P, which is currently formulated when using.
Twelve SPF-grade SD rats are selected and randomly divided into a free base group and a polymorph form P group with 6 rats in each group (both male and female). Animals are fasted for 12 h but have free access to water. Weighing is performed and, the administration volume of each rat is calculated according to the animal weight, so that the administration dose is 20 mg/kg·bw. During administration, the drugs are each administrated by gavage, and 0.5% CMC-Na suspension/solution of the above two target drugs are extracted by 2 mL syringe respectively. The gavage needle is inserted into the stomach from the corner of the rat's mouth and pushed the solution thereto.
Blood is collected from the fundus venous plexus of rats at 0.2 mL before (0 h) and 0.5, 1, 2, 4, 6, 8, 12 and 24 h after administration, anticoagulated with 300 IU/mL heparin (1:20) and centrifuged (3000 r/min) for 15 min. After plasma separation, the blood drug concentration of the target drug is determined by HPLC-MS/MS.
Referring to the above-mentioned bioavailability test of the polymorph form P, the bioavailability tests of polymorph forms F, O, B and J are conducted respectively. Different from the bioavailability test of the polymorph form P, rats are given 0.5% CMC-Na solution of the polymorph form F, O, B or J by gavage respectively. Other operations are the same as the above bioavailability test.

With `CNCCCN1c2ccccc2CCc2ccccc21` [desipramine, reference compound] the “Behavior duration, Static” value (SPF-grade SD rats) was 37.5 ± 6.5 s, the “Behavior duration, Swimming” value (SPF-grade SD rats) was 143.0 ± 15.5 s and the “Behavior duration, Wall climbing” value (SPF-grade SD rats) was 119.5 ± 12.0 s. The “Number of behaviors, Swimming” value (SPF-grade SD rats) was 28.6 ± 3.1 times, the “Number of behaviors, Wall climbing” value (SPF-grade SD rats) was 23.9 ± 2.4 times and the “Number of behaviors, Static” value (SPF-grade SD rats; 5 min observation) was 7.5 ± 1.3 times.
In the case of `CC1CCN(C(=O)c2ccc([C@H](c3cccc(O)c3)N3C[C@@H](C)N(Cc4cccc(F)c4)C[C@@H]3C)cc2)CC1` [free base], the “pH in clear solution” value ([1]; FaSSIF, Time 1) is reported as 6.5, the “Crystal form of insoluble solid sample” value ([1]; FaSSIF, Time 1, XRPD) is reported as “invariability” and the Solubility ([1]; FaSSIF, Time 1, room temperature) is reported as 0.013 mg/mL (≈ 24.5 µM). The “pH in clear solution” value ([1]; FaSSIF, Time 2) was 6.5, the “Crystal form of insoluble solid sample” value ([1]; FaSSIF, Time 2, XRPD) was “invariability” and the Solubility ([1]; FaSSIF, Time 2, room temperature) was 0.017 mg/mL (≈ 32.1 µM). For the same compound, the “pH in clear solution” value ([1]; FaSSIF, Time 4) was 6.5, the “Crystal form of insoluble solid sample” value ([1]; FaSSIF, Time 4, XRPD) was “invariability” and the Solubility ([1]; FaSSIF, Time 4, room temperature) was 0.016 mg/mL (≈ 30.2 µM). The “pH in clear solution” value ([1]; FaSSIF, Time 24) was 6.5, the “Crystal form of insoluble solid sample” value ([1]; FaSSIF, Time 24, XRPD) was “invariability” and the Solubility ([1]; FaSSIF, Time 24, room temperature) was 0.027 mg/mL (≈ 51 µM). The “pH in clear solution” value ([1]; FeSSIF, Time 1) was 4.9, the “Crystal form of insoluble solid sample” value ([1]; FeSSIF, Time 1, XRPD) was “invariability” and the Solubility ([1]; FeSSIF, Time 1, room temperature) was 0.059 mg/mL (≈ 111 µM). The “pH in clear solution” value ([1]; FeSSIF, Time 2) was 5.0, the “Crystal form of insoluble solid sample” value ([1]; FeSSIF, Time 2, XRPD) was “invariability” and the Solubility ([1]; FeSSIF, Time 2, room temperature) was 0.063 mg/mL (≈ 119 µM). For the same compound, the “pH in clear solution” value ([1]; FeSSIF, Time 4) was 5.0, the “Crystal form of insoluble solid sample” value ([1]; FeSSIF, Time 4, XRPD) was “invariability” and the Solubility ([1]; FeSSIF, Time 4, room temperature) was 0.062 mg/mL (≈ 117 µM). For the same compound, the “pH in clear solution” value ([1]; FeSSIF, Time 24) was 5.0, the “Crystal form of insoluble solid sample” value ([1]; FeSSIF, Time 24, XRPD) was “invariability” and the Solubility ([1]; FeSSIF, Time 24, room temperature) was 0.081 mg/mL (≈ 153 µM). The “pH in clear solution” value ([1]; SGF, Time 1) was 1.9, the “Crystal form of insoluble solid sample” value ([1]; SGF, Time 1, XRPD) was “invariability” and the Solubility ([1]; SGF, Time 1, room temperature) was 2.1 mg/mL (≈ 3960 µM). For the same compound, the “pH in clear solution” value ([1]; SGF, Time 2) was 1.9, the “Crystal form of insoluble solid sample” value ([1]; SGF, Time 2, XRPD) was “invariability” and the Solubility ([1]; SGF, Time 2, room temperature) was 2.7 mg/mL (≈ 5100 µM). For the same compound, the “pH in clear solution” value ([1]; SGF, Time 4) was 1.9, the “Crystal form of insoluble solid sample” value ([1]; SGF, Time 4, XRPD) was “invariability” and the Solubility ([1]; SGF, Time 4, room temperature) was 2.7 mg/mL (≈ 5100 µM). The “pH in clear solution” value ([1]; SGF, Time 24) was 2.1, the “Crystal form of insoluble solid sample” value ([1]; SGF, Time 24, XRPD) was “invariability” and the Solubility ([1]; SGF, Time 24, room temperature) was 3.2 mg/mL (≈ 6040 µM). For the same compound, the “pH in clear solution” value ([1]; Water, Time 1) was 5.6, the “pH in clear solution” value ([1]; Water, Time 2) was 5.7 and the “Crystal form of insoluble solid sample” value ([1]; Water, Time 2, XRPD) was “invariability”. The Solubility ([1]; Water, Time 2, room temperature) was “<LOQ”, the “pH in clear solution” value ([1]; Water, Time 4) was 5.6 and the “Crystal form of insoluble solid sample” value ([1]; Water, Time 4, XRPD) was “invariability”. The Solubility ([1]; Water, Time 4, room temperature) was “<LOQ”, the “pH in clear solution” value ([1]; Water, Time 24) was 5.8 and the “Crystal form of insoluble solid sample” value ([1]; Water, Time 24, XRPD) was “invariability”. The Solubility ([1]; Water, Time 24, room temperature) was “<LOQ”, the “AUC(0-24h)” value [2] was 0.2886 µg·h/mL and the “AUC(0-24h)” value ([2]; listed as Free base) was 0.2886 ± 0.0647 µg·h/mL. For the same compound, the Cmax ([2]; listed as Free base) was 0.05168 ± 0.00656 µg/mL, the Tmax ([2]; listed as Free base) was 3.6 ± 0.9 h and the t1/2z ([2]; listed as Free base) was 2.4 ± 0.8 h.
